Here are results for three compounds from PMC8050080, “Cannabis sativa terpenes are cannabimimetic and selectively enhance cannabinoid activity” (Scientific Reports, 2021).

Experiment [1] deals with T1, CB1 (Homo sapiens, UniProt P21554). The experiment is classed as cell-based. Details: expressed in transfected cells; host or cells: CHO (CB1-CHO-βarr2 / CB1-CHO-DX), gift from Dr. Robert Laprairie. The following applies: Fig. S14C.
Experiment [2] deals with male and female CD-1 mice. The experiment in a line: Catalepsy ring test. The experiment is classed as in vivo. The following applies: for catalepsy vs baseline: 15 min after i.p. 200 mg/kg terpene or 5.6 mg/kg WIN55,212-2, Fig. S2B. The protocol:
Potential induction of catalepsy was assessed using the ring test as described. Mice were baselined, injected with compound, and then assessed with the ring test at 15 min post-injection. Data was represented as the percentage (%) of time in a “cataleptic” immobile state over the 5 min observation period.

For experiment [3], the target named is T1, CB1. Description: biochemical. The experiment is classed as binding. The following applies: CB1-CHO membranes; for competition for the orthosteric binding site against CP55,940: Fig. 8A.
Experiment [4] deals with male and female CD-1 mice. The experiment in a line: Tail flick thermal latency test (antinociception). The class given is in vivo. To be noted: Fig. S1; for tail flick antinociception (efficacy in words): terpenes 50–200 mg/kg i.p. (β-Caryophyllene 100 mg/kg), WIN55,212-2 up to 10 mg/kg, over 2 h. The protocol: Antinociception was tested using the tail flick thermal latency test. Mice were baselined by gently restraining the animal and lowering the distal portion of the tail into a water bath set to 52 °C or 47 °C where stated, and the latency to flick the tail recorded with a stopwatch, with a 10 s cutoff. Mice were then injected with compounds intraperitoneally (i.p.). Thermal latency was then assessed over a time course of 2 h, or at a single time-point as noted. […] For assays using terpene/WIN55,212-2 co-treatment, WIN55,212-2 was co-administered with terpene in the same solution.

Experiment [5] deals with T2, human mu opioid receptor (Homo sapiens, UniProt P35372).
T2 construct: host or cells: CHO (MOR-CHO)
T2 sequence (P35372 whole entry): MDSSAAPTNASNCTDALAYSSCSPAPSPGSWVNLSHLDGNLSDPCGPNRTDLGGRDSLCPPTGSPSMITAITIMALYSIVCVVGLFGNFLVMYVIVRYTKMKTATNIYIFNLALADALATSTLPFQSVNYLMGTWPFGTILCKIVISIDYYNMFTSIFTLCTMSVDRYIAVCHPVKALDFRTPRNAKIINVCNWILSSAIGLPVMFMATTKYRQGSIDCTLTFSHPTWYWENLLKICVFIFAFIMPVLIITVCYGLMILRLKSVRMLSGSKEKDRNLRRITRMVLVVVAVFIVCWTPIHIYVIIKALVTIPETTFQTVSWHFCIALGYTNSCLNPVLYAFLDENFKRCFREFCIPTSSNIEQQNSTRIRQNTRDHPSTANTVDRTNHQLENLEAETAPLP
The class given is cell-based. To be noted: 500 μM terpene or 10 μM morphine, 5 min, Fig. S13A.
Method: Cells were plated in 6-well plates 24 h prior to the start of the experiments. Cells were serum starved for 1 h then treated for 5 min with compound. In antagonist experiments, cells were pretreated for 5 min before agonist treatment for 5 min. […] Cells were scraped and collected. Lysates were vortexed then centrifuged at 13 k rpm at 4 °C for 10 min. Lysates were then processed for Western blots or stored at − 80 °C.
CHO cells were serum starved for 1 hr, then treated with Vehicle, 10 μM morphine, or 500
μM terpene for 5 min. ERK was quantitated and reported as above. Data expressed as the
vs. Vehicle group by 1 Way ANOVA with Dunnett’s post hoc test. B) MOR-CHO cells
serum starved for 1 hr, then pre-treated with Vehicle or 10 μM naloxone for 10 min, then
treated with Vehicle, 10 μM morphine, or 500 μM terpene for 5 min. ERK quantitated,
reported, and normalized as in A (n=3 independent experiments). *, **** = p < 0.05,
0.0001 vs. terpene-alone group for each set by 1 Way ANOVA with Sidak’s post hoc test
(set up as pairwise comparisons between terpene and terpene + naloxone for each set). For
both, representative blots are shown below each graph.

The subject of experiment [6] is male and female CD-1 mice. Description: Open field test (hypolocomotion). The following applies: for locomotor activity vs baseline / distance traveled and mobile time, experiment without baseline recording: 200 mg/kg terpene or 5.6 mg/kg WIN55,212-2 i.p.; for locomotor activity vs baseline: compared to baseline values, Fig. S2C,D, confounded by habituation; for distance traveled and mobile time, experiment without baseline recording: vs Vehicle, Fig. S3A,B.
Method: All experiments were performed on male and female CD-1 (a.k.a. ICR) mice obtained from Charles River in age-matched cohorts of 5–6 weeks of age. […] The animals were maintained in an AAALAC-accredited vivarium at the University of Arizona in temperature and humidity-controlled rooms on a 12-h light/dark cycle. Standard chow and water were available ad libitum. […] Mice were randomized to treatment group by randomization of mice to cages upon arrival, and block random assignment of cages to treatment group. The experimenter was blinded to treatment group by the delivery of coded drug vials. The groups were not decoded until all data had been acquired.
The open field test was used to determine potential hypolocomotive properties induced by terpene and cannabinoid treatment. The open field box was a white box with an open top and black floor. The tracking area was 30 cm × 28 cm. Mice were baselined by placing the mouse in the center of the box and recording from a video camera ~ 1.5 m above for a period of 5 min. Mice were then injected with compound and placed back in the open field box 10–15 min post-injection. In follow-up experiments, mice were not baselined, injected with compound, and placed in the open field box from 10 to 15 min. The total distance traveled and mobile time of mice were analyzed using AnyMaze software.

The subject of experiment [7] is male and female CD-1 mice. Description: Hypothermia (core temperature, rectal thermometer). The class given is in vivo. The following applies: for hypothermia vs baseline: 30 min after i.p. 200 mg/kg terpene or 5.6 mg/kg WIN55,212-2, Fig. S2A. The method, then: Changes in core temperature were assessed using a lubricated rectal thermometer placed 1.0 cm into the mouse rectum. Temperature was assessed before treatment and 30 min post-treatment.

The test system of experiment [8] is WT CHO cells. Description: ERK phosphorylation (Western) in WT CHO cells. The following applies: for ERK phosphorylation in WT CHO cells: 500 μM terpene or 10 μM WIN55,212-2, 5 min, Fig. 7B. The experiment is classed as cell-based. The method, then: WT-CHO cells were obtained from ATCC (#CCL-61). CHO cells stably expressing the human CB1 receptor were obtained from PerkinElmer (#ES-110-C) and utilized for western blots (CB1-CHO-C2) or binding assays (CB1-CHO-C3). HitHunter (CB1-CHO-cAMP) and PathHunter (CB-CHO-βarr2) assays were performed on respective CB1-CHO lines, and were a kind gift from Dr. Robert Laprairie[44]. CHO cells stably expressing cloned CB2 (CB2-CHO) were produced by electroporation with the human CB2 N-3xHA tag cDNA (GeneCopoeia). A stable expressing population was selected for with 500 μg/mL G418. CHO cells stably expressing the human mu opioid receptor were obtained from PerkinElmer (#ES-542-C). All cells were grown on 10 cm dishes in DMEM/F-12 50/50 mix w/ L-glutamine and 15 mM HEPES (Corning) containing 10% heat-inactivated fetal bovine serum, 100 units/mL penicillin, 100 units/mL streptomycin, and 400 μg/mL G418 (CB1-CHO-C2, CB1-CHO-C3, CB2-CHO, MOR-CHO); 800 μg/mL G418 (CB1-CHO-cAMP); 800 μg/mL G418 and 300 μg/mL hygromycin B (CB1-CHO-βarr2). WT CHO were grown as stated above without selection antibiotic. Cells were incubated in a humidified incubator at 37 °C with 5% CO2 and were sub-cultured every 2–3 days.
Cells were plated in 6-well plates 24 h prior to the start of the experiments. Cells were serum starved for 1 h then treated for 5 min with compound. In antagonist experiments, cells were pretreated for 5 min before agonist treatment for 5 min. Media was then aspirated, cells were placed on ice, washed with ice-cold PBS once, and lysis buffer (20 mM Tris–HCl, pH 7.4, 150 mM NaCl, 2 mM EDTA, 0.1% SDS, 1% Nonidet P-40, 0.25% deoxycholate, 1 mM sodium orthovanadate, 1 mM PMSF, 1 mM sodium fluoride, and a protease inhibitor cocktail (EMD Millipore)), was added. Cells were scraped and collected. Lysates were vortexed then centrifuged at 13 k rpm at 4 °C for 10 min. Lysates were then processed for Western blots or stored at − 80 °C.
Cell lysate protein was quantified with a modified BCA protein assay using manufacturers protocol (Bio-Rad). Samples (20–30 μg) were ran on precast gels (10% Bis–Tris, Bolt brand, from ThermoFisher). Gels were wet-transferred to nitrocellulose membranes at 30 V for at least 60 min at 4 °C. Blots were blocked with 5% non-fat dry milk in TBS for 30 min, washed 3 × for 5 min with TBS + 0.1% Tween-20 (TBST), and incubated with primary antibody overnight at 4 °C. Primary antibody: pERK and tERK (Cell Signaling) at 1:1000 dilution in 5% BSA in TBST. Blots were then washed 3 × with TBST then incubated with secondary antibodies for 90 min at room temperature. Secondary antibodies: Goat anti-Rabbit 800 W and Goat anti-Mouse 680 diluted at 1:10,000 and 1:20,000 (Licor), respectively, in 5% non-fat milk in TBST. Blots were washed 3X with TBST and 1 × with TBS, then imaged on a Licor Odyssey Fc or Azure Sapphire. Bands were analyzed using Image-J and reported as pERK/tERK normalized to the standard, or simply as pERK/tERK.

Experiment [9] deals with male and female CD-1 mice. The experiment in a line: Cannabinoid tetrad of behaviors (antinociception, hypolocomotion, catalepsy, hypothermia). The experiment is classed as in vivo. From the text: Our first set of experiments sought to determine whether selected terpenes/terpenoids (α-Humulene, β-Pinene, Linalool [terpenoid], Geraniol [terpenoid], and β-Caryophyllene as a putative cannabinoid receptor type 2 [CB2] agonist control) had activity in the cannabinoid tetrad of behaviors mediated by the CB1 receptor: antinociception, hypolocomotion, catalepsy, and hypothermia. These terpenes were selected based on their quantities in Cannabis sativa, with α-Humulene, β-Pinene, Linalool, and β-Caryophyllene all being found in higher quantities and Geraniol in lower to underdetermined quantities. Although it is not clear if geraniol is present in higher quantities, we nonetheless chose this ligand due to its reported anti-nociceptive activity (e.g.[22]). Terpenes were administered at several doses (50–200 mg/kg) i.p. and assessed in the tail flick assay in male and female CD-1 mice. […]
Antinociception was tested using the tail flick thermal latency test. Mice were baselined by gently restraining the animal and lowering the distal portion of the tail into a water bath set to 52 °C or 47 °C where stated, and the latency to flick the tail recorded with a stopwatch, with a 10 s cutoff. […] Thermal latency was then assessed over a time course of 2 h, or at a single time-point as noted. […]
Potential induction of catalepsy was assessed using the ring test as described. […]

Experiment [10] has as its target T1, CB1. The class given is cell-based. To be noted: varying concentrations, 5 min, Fig. 6.
Method: WT-CHO cells were obtained from ATCC (#CCL-61). […] CHO cells stably expressing cloned CB2 (CB2-CHO) were produced by electroporation with the human CB2 N-3xHA tag cDNA (GeneCopoeia). A stable expressing population was selected for with 500 μg/mL G418. […] All cells were grown on 10 cm dishes in DMEM/F-12 50/50 mix w/ L-glutamine and 15 mM HEPES (Corning) containing 10% heat-inactivated fetal bovine serum, 100 units/mL penicillin, 100 units/mL streptomycin, and 400 μg/mL G418 (CB1-CHO-C2, CB1-CHO-C3, CB2-CHO, MOR-CHO); 800 μg/mL G418 (CB1-CHO-cAMP); 800 μg/mL G418 and 300 μg/mL hygromycin B (CB1-CHO-βarr2). WT CHO were grown as stated above without selection antibiotic. Cells were incubated in a humidified incubator at 37 °C with 5% CO2 and were sub-cultured every 2–3 days.
Cells were plated in 6-well plates 24 h prior to the start of the experiments. Cells were serum starved for 1 h then treated for 5 min with compound. In antagonist experiments, cells were pretreated for 5 min before agonist treatment for 5 min. […] Cells were scraped and collected. Lysates were vortexed then centrifuged at 13 k rpm at 4 °C for 10 min. […]
Cell lysate protein was quantified with a modified BCA protein assay using manufacturers protocol (Bio-Rad). […] Bands were analyzed using Image-J and reported as pERK/tERK normalized to the standard, or simply as pERK/tERK.

T1 sequence (P21554 whole entry): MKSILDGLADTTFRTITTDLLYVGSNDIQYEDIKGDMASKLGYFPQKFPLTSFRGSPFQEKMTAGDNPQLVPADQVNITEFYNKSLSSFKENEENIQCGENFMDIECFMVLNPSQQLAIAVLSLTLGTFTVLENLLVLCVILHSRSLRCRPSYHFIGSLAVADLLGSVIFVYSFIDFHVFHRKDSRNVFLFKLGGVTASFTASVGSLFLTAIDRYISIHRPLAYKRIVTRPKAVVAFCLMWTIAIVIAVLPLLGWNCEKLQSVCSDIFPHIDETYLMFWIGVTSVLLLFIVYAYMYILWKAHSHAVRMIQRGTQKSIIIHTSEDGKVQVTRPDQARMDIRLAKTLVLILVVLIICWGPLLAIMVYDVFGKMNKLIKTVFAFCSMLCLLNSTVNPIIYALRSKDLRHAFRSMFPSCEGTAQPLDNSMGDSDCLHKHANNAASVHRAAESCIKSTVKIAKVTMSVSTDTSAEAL

For `CC(C)=CCC/C(C)=C/CO` [Geraniol], the “effect of a full dose-range of Geraniol on WIN55,212-2 βarrestin2 recruitment” value in [1] is recorded as “dose-dependent reductions in WIN55,212-2 recruitment”. Moreover, the “effect of istradefyllene pretreatment on catalepsy response” value in [2] (10 mg/kg istradefyllene, 200 mg/kg terpene, Fig. 4) is on record as “partially blocked”. In experiment [2] (10 mg/kg rimonabant, 200 mg/kg terpene, Fig. 4), the “effect of rimonabant pretreatment on catalepsy response” value was “no impact”. Moreover, the catalepsy vs baseline entry in experiment [2] is “significant increases in cataleptic behavior”. Besides, the “competition for the orthosteric binding site against CP55,940” value in experiment [3] was “full competition”. Also, the IC50 in experiment [3] (mean (95% CI), n = 5, Fig. 8A, read-out: IC50, competition binding against 3H-CP55,940) turned out to be 44.2 µM. Besides, in experiment [4] (terpene 50–200 mg/kg i.p., dose-dependent), the “efficacy in the tail flick assay” value is on record as 40–50%. Besides, the “ERK stimulation in MOR-CHO cells” value in experiment [5] is listed as “no response”. Besides, the “effect of istradefyllene pretreatment on mobile time” value in [6] (10 mg/kg istradefyllene, 200 mg/kg terpene, Fig. 5) is recorded as “significant reversal”. In addition, in experiment [6] (10 mg/kg istradefyllene, 200 mg/kg terpene, Fig. S7), the “effect of istradefyllene pretreatment on distance traveled” value is given as “istradefyllene reversal”. For the same compound, in experiment [6], the “locomotor activity vs baseline” value is “significant reductions in locomotor activity”; the “distance traveled and mobile time, experiment without baseline recording” value is “reductions in distance traveled and mobile time”. In addition, the hypothermia vs baseline result in experiment [7] was “induced significant hypothermia”. Besides, in [8], the “ERK phosphorylation in WT CHO cells” value is given as “did not cause ERK phosphorylation”.

`Cc1c(C(=O)c2cccc3ccccc23)c2cccc3c2n1[C@H](CN1CCOCC1)CO3` [WIN55,212-2, reference compound]: the catalepsy vs baseline entry in [2] is “significant increases in cataleptic behavior”. The “tail flick antinociception (efficacy in words)” value in [4] is recorded as “dose-dependent increases in thermal latency with greater efficacy than any of the tested compounds”. In experiment [6], the “locomotor activity vs baseline” value is “significant reductions in locomotor activity”; the “distance traveled and mobile time, experiment without baseline recording” value was “reductions in distance traveled and mobile time”. In addition, the “effect of rimonabant pretreatment on hypothermia” value in experiment [7] (10 mg/kg rimonabant, 200 mg/kg terpene or 5.6 mg/kg WIN55,212-2, Fig. 3, S4C) is given as “only partially reversed”. Besides, the hypothermia vs baseline entry in experiment [7] is recorded as “induced significant hypothermia”. Also, the “ERK phosphorylation in WT CHO cells” value in experiment [8] was “did not cause ERK phosphorylation”. In experiment [9] (5.6 mg/kg WIN55,212-2 after 10 mg/kg rimonabant i.p., Fig. S4), the “effect of rimonabant on tetrad behaviors induced by the agonist” value was “fully or partially reverse”.

Consider `C=C1CC/C=C(\C)CC[C@@H]2[C@@H]1CC2(C)C` [β-Caryophyllene, reference compound], for which the catalepsy vs baseline entry in experiment [2] is recorded as “did not induce”. Besides, the “competition for the orthosteric binding site against CP55,940” value in [3] was “some competition and semi-biphasic properties”. Further, the “tail flick antinociception (efficacy in words)” value in experiment [4] is listed as “low efficacy”. In addition, in experiment [5], the “ERK stimulation in MOR-CHO cells” value is listed as “produced ERK stimulation”. The “ERK activation in CB1-CHO cells” value in [10] is on record as “activated downstream ERK signaling”. In [6], the “distance traveled and mobile time, experiment without baseline recording” value is on record as “did not result in significant reductions”. Also, in experiment [7], the hypothermia vs baseline entry is on record as “did not induce”. In addition, the “rimonabant sensitivity of ERK activation in WT CHO cells” value in [8] (500 μM terpene after 10 μM rimonabant, Fig. 7C) is “rimonabant-insensitive”. Besides, in experiment [8], the “ERK phosphorylation in WT CHO cells” value is listed as “activated ERK”. The “number of classic cannabinoid tetrad behaviors induced (out of 4)” value in experiment [9] (200 mg/kg terpene i.p. (β-Caryophyllene control)) was “did not”.

By IC50 is commonly meant the concentration needed to halve the response being measured.
